# Legend:
# barnyardgrass = assay: Test A preemergence; assay type: in vivo, Echinochloa crus-galli
# How it was run: (§1)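 Greenhouse pot test, loam/sand soil. Formulation: non-phytotoxic solvent mix plus surfactant. Pre: directed spray onto soil after sowing. Post: plants at 1–2 leaf, 2–10 cm. Rated visually vs untreated controls at ~10 d, 0 (no effect) to 100 (complete control).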
# morningglory = assay: Test C postemergence; assay type: in vivo, Ipomoea coccinea
# How it was run: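 Seeds are planted in blended loam soil and sand and treated preemergence, while seedlings in a peat moss/vermiculite medium receive postemergence sprays at 2 to 18 cm height. All plants stay in the greenhouse for 13 to 15 days before visual comparison with controls on a 0–100 scale.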
# wild oat = assay: Test C postemergence; assay type: in vivo, Avena fatua
# Excerpt: (§2) Seeds of plant species selected from blackgrass (Alopecurus myosuroides), Italian ryegrass (Lolium multiflorum), wheat, winter (winter wheat, Triticum aestivum), galium (catchweed bedstraw, Galium aparine), corn (Zea mays), large (Lg) crabgrass (Digitaria sanguinalis), giant foxtail (Setaria faberii), johnsongrass (Sorghum halepense), lambsquarters (Chenopodium album), morningglory (Ipomoea coccinea), yellow nutsedge (Cyperus esculentus), pigweed (Amaranthus retroflexus), ragweed (common ragweed, Ambrosia elatior), soybean (Glycine max), barnyardgrass (Echinochloa crus-galli), oilseed rape (Brassica napus), waterhemp (common waterhemp, Amaranthus rudis), kochia (Kochia scoparia), wild oat (Avena fatua), surinam grass (Brachiaria decumbens), foxtail, green (green foxtail, Setaria viridis), goosegrass (Eleusine indica), bromegrass, downy (downy bromegrass, Bromus tectorum), nightshade (eastern black nightshade, Solanum ptycanthum), cocklebur (common cocklebur, Xanthium strumarium), cupgrass, woolly (woolly cupgrass, Eriochloa villosa), bermudagrass (Cynodon dactylon), sunflower, (common oilseed sunflower, Helianthus annuus), Russian thistle (Salsola kali), and velvetleaf (Abutilon theophrasti) were planted into a blend of loam soil and sand and treated preemergence with test chemicals formulated in a non-phytotoxic solvent mixture which included a surfactant.
# (§3) At the same time, plants selected from these crop and weed species and also barley, winter (winter barley, Hordeum vulgare), windgrass (Apera spica-venti), chickweed (common chickweed, Stellaria media), deadnettle (henbit deadnettle, Lamium amplexicaule), and canarygrass (littleseed canarygrass, Phalaris minor) were planted in pots containing Redi-Earth® planting medium (Scotts Company, 14111 Scottslawn Road, Marysville, Ohio 43041) comprising spaghnum peat moss, vermiculite, wetting agent and starter nutrients and treated with postemergence applications of test chemicals formulated in the same manner. Plants ranged in height from 2 to 18 cm (1- to 4-leaf stage) for postemergence treatments. Treated plants and controls were maintained in a greenhouse for 13 to 15 days, after which time all species were compared to controls and visually evaluated. Plant response ratings, summarized in Table C, are based on a scale of 0 to 100 where 0 is no effect and 100 is complete control. A dash (-) response means no test result.
# velvetleaf = assay: Test A postemergence; assay type: in vivo, Abutilon theophrasti
# How it was run: as §1
# rice = assay: Test B flooded paddy test; assay type: in vivo, Oryza sativa; conditions: Flood, 250 g ai/ha, 0 to 100 scale where 0 is no effect and 100 is complete control
# How it was run: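 Seedlings are raised to two leaves, flooded to a depth of 3 cm and dosed by adding the compound to the floodwater. Water level is kept constant, and plants are scored visually versus controls 13–15 days later (0 = no effect, 100 = complete control).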
# yellow nutsedge = assay: Test C postemergence; assay type: in vivo, Cyperus esculentus
# Excerpt: as §2, §3
# blackgrass = assay: Test C postemergence; assay type: in vivo, Alopecurus myosuroides
# Excerpt: as §2, §3
# kochia = assay: Test C postemergence; assay type: in vivo, Kochia scoparia
# Excerpt: as §2, §3
# [1] = 31 g ai/ha, postemergence, visual rating, scale 0 to 100 (0 no effect, 100 complete control), 13 to 15 days
# [2] = 1000 g ai/ha, 0 to 100 scale, 0 no effect, 100 complete control
# [3] = Postemergence, 31 g ai/ha, scale 0 to 100 (0 no effect, 100 complete control), 13 to 15 days
# [4] = Postemergence, 62 g ai/ha, scale 0 to 100 (0 no effect, 100 complete control)
# [5] = 16 g ai/ha, postemergence, visual rating, scale 0 to 100 (0 no effect, 100 complete control), 13 to 15 days
structure (smiles),measurement,setting,value
"Fc1cccc(Oc2ncc(Cl)cn2)c1-n1cc(Br)cn1 [Compound 178, 2-[2-(4-bromo-1H-pyrazol-1-yl)-3-fluorophenoxy]-5-chloropyrimidine]",pest or weed control at 125 g/ha,"barnyardgrass; Echinochloa crus-galli, pre-emergence, 240 h, 125 g ai/ha, 0 to 100 scale where 0 is no effect and 100 is complete control, read-out: Plant response rating, Barnyardgrass",90%
same,pest or weed control at 500 g/ha,"barnyardgrass; Echinochloa crus-galli, pre-emergence, 240 h, 500 g ai/ha, 0 to 100 scale where 0 is no effect and 100 is complete control, read-out: Barnyardgrass plant response rating",100%
same,Morningglory plant response rating,morningglory; [1],70
same,pest or weed control at 16 g/ha,"morningglory; Ipomoea, post-emergence, 16 g ai/ha, postemergence, 0 is no effect, 100 is complete control, read-out: Plant response rating (0 to 100), Morningglory",10%
same,pest or weed control at 125 g/ha,"morningglory; Ipomoea, post-emergence, 125 g ai/ha, postemergence, visual rating, scale 0 to 100 (0 no effect, 100 complete control), read-out: Plant response rating, Morningglory",65%
same,pest or weed control at 62 g/ha,"morningglory; Ipomoea, post-emergence, Postemergence, 62 g ai/ha, scale 0 to 100 (0 no effect, 100 complete control), read-out: Plant response rating, Morningglory",85%
same,"Oat, Wild plant response rating",wild oat; [1],0
same,pest or weed control at 16 g/ha,"wild oat; Avena fatua, post-emergence, 16 g ai/ha, postemergence, 0 is no effect, 100 is complete control, read-out: Plant response rating (0 to 100), Oat, Wild",0%
same,pest or weed control at 125 g/ha,"wild oat; Avena fatua, post-emergence, 125 g ai/ha, postemergence, visual rating, scale 0 to 100 (0 no effect, 100 complete control), read-out: Plant response rating, Oat, Wild",30%
same,pest or weed control at 62 g/ha,"wild oat; Avena fatua, post-emergence, Postemergence, 62 g ai/ha, scale 0 to 100 (0 no effect, 100 complete control), read-out: Plant response rating, Oat, Wild",10%
same,Velvetleaf plant response rating,"velvetleaf; 125 g ai/ha, 0 to 100 scale where 0 is no effect and 100 is complete control",100
same,pest or weed control at 500 g/ha,"velvetleaf; Abutilon theophrasti, post-emergence, 240 h, 500 g ai/ha, 0 to 100 scale where 0 is no effect and 100 is complete control, read-out: Plant response rating, Velvetleaf",100%
same,plant injury at 250 g/ha,"rice; Oryza sativa, read-out: Plant response rating, Rice",0%
same,"Nutsedge, Yellow plant response rating",yellow nutsedge; [1],5
same,pest or weed control at 16 g/ha,"yellow nutsedge; Cyperus, post-emergence, 16 g ai/ha, postemergence, 0 is no effect, 100 is complete control, read-out: Plant response rating (0 to 100), Nutsedge, Yellow",5%
same,pest or weed control at 125 g/ha,"yellow nutsedge; Cyperus, post-emergence, 125 g ai/ha, postemergence, visual rating, scale 0 to 100 (0 no effect, 100 complete control), read-out: Plant response rating, Nutsedge, Yellow",10%
same,pest or weed control at 62 g/ha,"yellow nutsedge; Cyperus, post-emergence, Postemergence, 62 g ai/ha, scale 0 to 100 (0 no effect, 100 complete control), read-out: Plant response rating, Nutsedge, Yellow",5%
same,pest or weed control at 16 g/ha,"blackgrass; Alopecurus myosuroides, post-emergence, 16 g ai/ha, postemergence, 0 is no effect, 100 is complete control, read-out: Plant response rating (0 to 100), Blackgrass",0%
same,pest or weed control at 31 g/ha,"blackgrass; Alopecurus myosuroides, post-emergence, 31 g ai/ha, postemergence, visual rating, scale 0 to 100 (0 no effect, 100 complete control), 13 to 15 days, read-out: Blackgrass plant response rating",5%
same,pest or weed control at 125 g/ha,"blackgrass; Alopecurus myosuroides, post-emergence, 125 g ai/ha, postemergence, visual rating, scale 0 to 100 (0 no effect, 100 complete control), read-out: Plant response rating, Blackgrass",60%
same,pest or weed control at 62 g/ha,"blackgrass; Alopecurus myosuroides, post-emergence, Postemergence, 62 g ai/ha, scale 0 to 100 (0 no effect, 100 complete control), read-out: Plant response rating, Blackgrass",20%
same,pest or weed control at 16 g/ha,"kochia; Bassia scoparia, post-emergence, 16 g ai/ha, postemergence, 0 is no effect, 100 is complete control, read-out: Plant response rating (0 to 100), Kochia",60%
same,pest or weed control at 31 g/ha,"kochia; Bassia scoparia, post-emergence, 31 g ai/ha, postemergence, visual rating, scale 0 to 100 (0 no effect, 100 complete control), 13 to 15 days, read-out: Kochia plant response rating",90%
same,pest or weed control at 125 g/ha,"kochia; Bassia scoparia, post-emergence, 125 g ai/ha, postemergence, visual rating, scale 0 to 100 (0 no effect, 100 complete control), read-out: Plant response rating, Kochia",95%
same,pest or weed control at 62 g/ha,"kochia; Bassia scoparia, post-emergence, Postemergence, 62 g ai/ha, scale 0 to 100 (0 no effect, 100 complete control), read-out: Plant response rating, Kochia",95%
Clc1cnc(Oc2cccc(Br)c2-n2cc(Br)cn2)nc1 [Compound 65],"Plant response rating, Barnyardgrass",barnyardgrass; [2],100
same,"Plant response rating (0 to 100), Morningglory","morningglory; 125 g ai/ha, postemergence",95
same,"Plant response rating, Morningglory",morningglory; [3],30
same,"Plant response rating, Morningglory",morningglory; [4],65
same,"Plant response rating (0 to 100), Oat, Wild","wild oat; 125 g ai/ha, postemergence",5
same,"Plant response rating, Oat, Wild",wild oat; [3],0
same,"Plant response rating, Oat, Wild",wild oat; [4],5
same,"Plant response rating, Velvetleaf",velvetleaf; [2],100
same,"Plant response rating, Rice",rice,0
same,"Plant response rating (0 to 100), Nutsedge, Yellow","yellow nutsedge; 125 g ai/ha, postemergence",15
same,"Plant response rating, Nutsedge, Yellow",yellow nutsedge; [3],5
same,"Plant response rating, Nutsedge, Yellow",yellow nutsedge; [4],5
same,Blackgrass plant response rating,blackgrass; [5],0
same,"Plant response rating (0 to 100), Blackgrass","blackgrass; 125 g ai/ha, postemergence",15
same,"Plant response rating, Blackgrass",blackgrass; [3],10
same,"Plant response rating, Blackgrass",blackgrass; [4],40
same,Kochia plant response rating,kochia; [5],90
same,"Plant response rating (0 to 100), Kochia","kochia; 125 g ai/ha, postemergence",98
same,"Plant response rating, Kochia",kochia; [3],90
same,"Plant response rating, Kochia",kochia; [4],98
